Legend:
HCT-116 = assay type: cell-based; conditions: HCT-116, Colon
SNB-19 = assay type: cell-based; conditions: SNB-19, CNS
M14 = assay type: cell-based; conditions: M14, Melanoma
TK-10 = assay type: cell-based; conditions: TK-10, Renal
[1] = DPPH radical scavenging assay; conditions: 25 µM test compound, 0.1 mM DPPH, acetonitrile, 30 min
Summary of the method: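 Compounds at 25 µM in acetonitrile mixed 1:2 with 0.1 mM DPPH in acetonitrile, kept 30 min in the dark at room temperature. Absorbance read at 517 nm; % scavenging = (Ac − As)/Ac × 100, Ac being DPPH blank. Ascorbic acid positive control.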

HL-60(TB) = conditions: for GI50 / Total growth inhibition (TGI): Leukemia; for CC50: read-out: 50% lethal concentration (LC50), Leukemia
K-562 = conditions: K-562, Leukemia; for CC50: read-out: 50% lethal concentration (LC50)
MOLT-4 = conditions: MOLT-4, Leukemia; for CC50: read-out: 50% lethal concentration (LC50)
RPMI-8226 = conditions: RPMI-8226, Leukemia; for CC50: read-out: 50% lethal concentration (LC50)
COLO 205 = conditions: COLO 205, Colon
KM12 = conditions: KM12, Colon
SW-620 = conditions: SW-620, Colon; for CC50: read-out: 50% lethal concentration (LC50)
SF-268 = conditions: SF-268, CNS; for CC50: read-out: 50% lethal concentration (LC50)
SF-295 = conditions: SF-295, CNS; for CC50: read-out: 50% lethal concentration (LC50)
SF-539 = conditions: SF-539, CNS; for CC50: read-out: 50% lethal concentration (LC50)
SNB-75 = conditions: SNB-75, CNS; for CC50: read-out: 50% lethal concentration (LC50)
U251 = conditions: U251, CNS
MALME-3M = conditions: Melanoma
SK-MEL-28 = conditions: SK-MEL-28, Melanoma; for CC50: read-out: 50% lethal concentration (LC50)
SK-MEL-5 = conditions: SK-MEL-5, Melanoma; for CC50: read-out: 50% lethal concentration (LC50)
OVCAR-8 = conditions: OVCAR-8, Ovarian; for CC50: read-out: 50% lethal concentration (LC50)
786-0 = conditions: 786-0, Renal
ACHN = conditions: for GI50 / Total growth inhibition (TGI): Renal; for CC50: read-out: 50% lethal concentration (LC50), Renal
SN12C = conditions: for GI50 / Total growth inhibition (TGI): Renal; for CC50: read-out: 50% lethal concentration (LC50), Renal
UO-31 = conditions: UO-31, Renal; for CC50: read-out: 50% lethal concentration (LC50)
PC-3 = conditions: PC-3, Prostate; for CC50: read-out: 50% lethal concentration (LC50)
MCF7 = conditions: MCF7, Breast; for CC50: read-out: 50% lethal concentration (LC50)
MDA-MB-231 = conditions: for GI50: MDA-MB-231, Breast; for Total growth inhibition (TGI) / CC50: MDA-MB-231/ATCC, Breast; for CC50: read-out: 50% lethal concentration (LC50)
T-47D = conditions: for GI50 / Total growth inhibition (TGI): Breast; for CC50: read-out: 50% lethal concentration (LC50), Breast

C=C1CCC2C3(C)COC(c4cn(-c5ccccc5)nc4-c4ccc(C)cc4)OC3CCC2(C)C1CC=C1C(=O)OCC1O (stereo not shown) [1i]
GI50 (HCT-116): 3.91 µM | Total growth inhibition (TGI) (HCT-116): 1.52 µM | GI50 (SNB-19): 1.36 µM | GI50 (M14): 1.76 µM | Total growth inhibition (TGI) (M14): 3.61 µM | GI50 (TK-10): 1.33 µM | % DPPH radical scavenging activity [1]: 56.31% | GI50 (HL-60(TB)): 2.17 µM | Total growth inhibition (TGI) (HL-60(TB)): > 100 µM | CC50 (HL-60(TB)): > 100 µM | GI50 (K-562): 3.82 µM | Total growth inhibition (TGI) (K-562): > 100 µM | CC50 (K-562): > 100 µM | GI50 (MOLT-4): 2.11 µM | Total growth inhibition (TGI) (MOLT-4): > 100 µM | CC50 (MOLT-4): > 100 µM | GI50 (RPMI-8226): 8.6 µM | Total growth inhibition (TGI) (RPMI-8226): > 100 µM | CC50 (RPMI-8226): > 100 µM | GI50 (COLO 205): 1.97 µM | Total growth inhibition (TGI) (COLO 205): 4.5 µM | GI50 (KM12): 3.01 µM | Total growth inhibition (TGI) (KM12): 7.93 µM | GI50 (SW-620): 5.42 µM | CC50 (SW-620): > 100 µM | GI50 (SF-268): 2.61 µM | Total growth inhibition (TGI) (SF-268): 7.58 µM | CC50 (SF-268): 55.4 µM | GI50 (SF-295): 1.58 µM | Total growth inhibition (TGI) (SF-295): 2.96 µM | CC50 (SF-295): 5.54 µM | GI50 (SF-539): 1.79 µM | Total growth inhibition (TGI) (SF-539): 3.19 µM | CC50 (SF-539): 5.7 µM | GI50 (SNB-75): 1.71 µM | Total growth inhibition (TGI) (SNB-75): 2.99 µM | CC50 (SNB-75): 6.55 µM | GI50 (U251): 2.61 µM | Total growth inhibition (TGI) (U251): 3.12 µM | GI50 (MALME-3M): 2.46 µM | Total growth inhibition (TGI) (MALME-3M): 4.28 µM | GI50 (SK-MEL-28): 1.74 µM | Total growth inhibition (TGI) (SK-MEL-28): 3.33 µM | CC50 (SK-MEL-28): 6.39 µM | GI50 (SK-MEL-5): 1.59 µM | Total growth inhibition (TGI) (SK-MEL-5): 2.96 µM | CC50 (SK-MEL-5): 5.49 µM | GI50 (OVCAR-8): 1.67 µM | Total growth inhibition (TGI) (OVCAR-8): 3.51 µM | CC50 (OVCAR-8): 7.37 µM | GI50 (786-0): 1.77 µM | Total growth inhibition (TGI) (786-0): 3.69 µM | GI50 (ACHN): 1.83 µM | Total growth inhibition (TGI) (ACHN): 3.5 µM | CC50 (ACHN): 6.67 µM | GI50 (SN12C): 1.66 µM | Total growth inhibition (TGI) (SN12C): 3.44 µM | CC50 (SN12C): 7.15 µM | GI50 (UO-31): 1.77 µM | Total growth inhibition (TGI) (UO-31): 2.67 µM | CC50 (UO-31): 5.36 µM | GI50 (PC-3): 1.92 µM | CC50 (PC-3): > 100 µM | GI50 (MCF7): 1.57 µM | Total growth inhibition (TGI) (MCF7): 4.6 µM | CC50 (MCF7): 5.4 µM | GI50 (MDA-MB-231): 1.7 µM | Total growth inhibition (TGI) (MDA-MB-231): 3.28 µM | CC50 (MDA-MB-231): 6.33 µM | GI50 (T-47D): 1.14 µM | Total growth inhibition (TGI) (T-47D): 3.55 µM | CC50 (T-47D): > 100 µM

C=C1CCC2C3(C)COC(c4cn(-c5ccccc5)nc4-c4ccc(F)cc4)OC3CCC2(C)C1CC=C1C(=O)OCC1O (stereo not shown) [1f, 3,19-(N-Phenyl-3-(4-fluorophenyl)-pyrazole) Acetal of Andrographolide]
GI50 (HCT-116): 0.39 µM | Total growth inhibition (TGI) (HCT-116): 1.18 µM | GI50 (SNB-19): 1.44 µM | Total growth inhibition (TGI) (SNB-19): 2.91 µM | GI50 (M14): 1.5 µM | Total growth inhibition (TGI) (M14): 3.23 µM | GI50 (TK-10): 1.27 µM | Total growth inhibition (TGI) (TK-10): 2.55 µM | % DPPH radical scavenging activity [1]: 58.15% | GI50 (HL-60(TB)): 0.64 µM | Total growth inhibition (TGI) (HL-60(TB)): 7.12 µM | CC50 (HL-60(TB)): > 100 µM | GI50 (K-562): 2.34 µM | Total growth inhibition (TGI) (K-562): > 100 µM | CC50 (K-562): > 100 µM | GI50 (MOLT-4): 0.6 µM | CC50 (MOLT-4): > 100 µM | GI50 (RPMI-8226): 0.49 µM | Total growth inhibition (TGI) (RPMI-8226): > 100 µM | CC50 (RPMI-8226): > 100 µM | GI50 (COLO 205): 1.48 µM | Total growth inhibition (TGI) (COLO 205): 3.2 µM | GI50 (KM12): 1.84 µM | Total growth inhibition (TGI) (KM12): 3.59 µM | GI50 (SW-620): 4.49 µM | Total growth inhibition (TGI) (SW-620): > 100 µM | CC50 (SW-620): > 100 µM | GI50 (SF-268): 2.36 µM | Total growth inhibition (TGI) (SF-268): 5.63 µM | CC50 (SF-268): 25.7 µM | GI50 (SF-295): 1.55 µM | Total growth inhibition (TGI) (SF-295): 2.92 µM | CC50 (SF-295): 5.49 µM | GI50 (SF-539): 1.77 µM | Total growth inhibition (TGI) (SF-539): 3.16 µM | CC50 (SF-539): 5.65 µM | GI50 (SNB-75): 1.66 µM | Total growth inhibition (TGI) (SNB-75): 3.09 µM | CC50 (SNB-75): 5.86 µM | GI50 (U251): 2.36 µM | Total growth inhibition (TGI) (U251): 5.63 µM | GI50 (MALME-3M): 1.58 µM | Total growth inhibition (TGI) (MALME-3M): 3.02 µM | GI50 (SK-MEL-28): 1.66 µM | Total growth inhibition (TGI) (SK-MEL-28): 3.12 µM | CC50 (SK-MEL-28): 5.86 µM | GI50 (SK-MEL-5): 1.62 µM | Total growth inhibition (TGI) (SK-MEL-5): 2.98 µM | CC50 (SK-MEL-5): 5.47 µM | GI50 (OVCAR-8): 1.48 µM | Total growth inhibition (TGI) (OVCAR-8): 2.95 µM | CC50 (OVCAR-8): 5.86 µM | GI50 (786-0): 1.6 µM | Total growth inhibition (TGI) (786-0): 3.34 µM | CC50 (786-0; read-out: 50% lethal concentration (LC50)): 6.96 µM | GI50 (ACHN): 1.66 µM | Total growth inhibition (TGI) (ACHN): 3.11 µM | CC50 (ACHN): 5.82 µM | GI50 (SN12C): 1.55 µM | Total growth inhibition (TGI) (SN12C): 3.27 µM | CC50 (SN12C): 6.93 µM | GI50 (UO-31): 1.6 µM | Total growth inhibition (TGI) (UO-31): 3.34 µM | CC50 (UO-31): 5.14 µM | GI50 (PC-3): 1.55 µM | Total growth inhibition (TGI) (PC-3): 4.04 µM | CC50 (PC-3): > 100 µM | GI50 (MCF7): 1.43 µM | Total growth inhibition (TGI) (MCF7): 4.13 µM | CC50 (MCF7): 63.1 µM | GI50 (MDA-MB-231): 1.68 µM | Total growth inhibition (TGI) (MDA-MB-231): 3.28 µM | CC50 (MDA-MB-231): 6.41 µM | GI50 (T-47D): 1.19 µM | Total growth inhibition (TGI) (T-47D): 2.97 µM | CC50 (T-47D): 7.44 µM
